# Square brackets hold non-standard residues; d marks the D form. Ends that are not written are not given here.
# Tests used:
# [1] = test system: CRC29 colorectal cancer organoid line, liver metastases; assay: Colorectal cancer organoid CRC29 caecum implant model, liver metastasis (FIG. 9); format: in vivo, immunodeficient mice; settings: 50 mg/kg 5-FU, 3 doses of 2.5 mg/kg CL04183, versus PBS
# Experimental: The colorectal cancer organoid line CRC29 was implanted in the caecum of immunodeficient mice. Two weeks after transplantation the animals were treated with either ‘5-Fluorouracil (5-FU) or PBS. […] A) The livers were stained for KU80 or human nucleoli to detect human cancer cells in the mouse organs, together with p-p53 (T55) or PML. B) The number of liver metastases per stained section was counted by eye.
# Mouse experiments were performed after approval from the Dutch animal ethics committee (WP number 9124-1-03). NOD.Cg-Prkdcscid Il2rgtm1Wjl/SzJ/J mice were purchased from Charles River and maintained in a pathogen-free environment. The animals were anaesthetized using 75 mg/kg ketamine and 0.5 mg/kg dexmedetomidine injected i.p., while 5 mg/kg carprofen was injected s.c. as analgesia. Subsequently, CRC29 organoids (250000 cells) containing a firefly luciferase construct were transplanted into the caecum in a 10 μl collagen droplet. Two weeks after tumor cell implatation the animals were treated with either 50 mg/kg ‘5-Fluorouracil (5-FU) or PBS. […] Four weeks after transplantation, the mice were sacrificed, and tissues were collected for further processing.
# [2] = test system: triple-negative breast cancer cell line MDAMB231; assay: Immunofluorescence of MDAMB231 cells surviving the LD50 dose (FIG. 13); format: cell-based, human; settings: staining two days later, survivors have low PML and p53 (S392)
# Experimental: A) The triple-negative breast cancer cell line MDAMB231 was treated with the LD50 dose, determined in previous assays. Two days later, an immunofluorescence staining was performed for the indicated proteins. B) Therapy-survivors are made up primarily of cells with low levels of these proteins.
# (§1) To study the selectivity of different therapies for cancer cells, colorimetric-based cytotoxicity assays were performed two days following treatments. Cells from several different cancer types (breast, ovarian, pancreas, gastric lung and liver cancer) were cultured in 96-wells plates with 4000 cells per well. These were treated with a serial dilution of compounds in triplicates and mock-treatments ([…], since peptides were dissolved therein). The AQeousOne Solution Cell Proliferation Assay Kit was used to assess cell viability, according to the manufacturer's instructions. In short, the old medium was removed and 100 μl of fresh medium and 10 μl of CellTiter AQueousOne solution were added to each well. The plates were incubated for 1 hour at 37° C. The resulting colorimetric reactions were read at 490 nm on a Microplate Absorbance Reader. Relative survival was determined by normalization of the results to Mock (=100% alive). […]
# [3] = test system: human breast cancer cell lines; assay: MTS viability assay in human breast cancer cell lines versus number of PML bodies (FIG. 7); format: cell-based
# Source text: Spearman's rank correlation coefficient (0.93) given; B) Correlation of open P53 (Pab240 clone) and P53 pSer392 (EP155Y clone) staining in a panel of eight human breast cancer lines including luminal, Her2 positive and triple-negative. Spearman's rank correlation coefficient (0.88) given; and C) Association between PML body count/nuclear pixel (to correct for variation in nucleus size between lines) and nuclear P53 pSer392 staining intensity in eight human breast cancer lines plotted against the effective dose inducing cell death in 50% of the population (ED50, as measured by MTS assay) after treatment with CL04177 for these cell lines. Sensitive cell lines are highlighted by the box.
# To study the selectivity of different therapies for cancer cells, colorimetric-based cytotoxicity assays were performed two days following treatments. […] The resulting colorimetric reactions were read at 490 nm on a Microplate Absorbance Reader. Relative survival was determined by normalization of the results to Mock (=100% alive). […]
# Six days after treatment, cells were incubated with 10 μl CellTiter 96® AQueous One Solution Cell Proliferation Assay (Promega) for 1 hour at 37° C. to perform an MTS assay. Subsequently, absorbance was measured at 490 nm using a Spectramax M5e.
# [4] = test system: cancer cell lines with wildtype or "open" p53 conformation; assay: Viability curves / ED50 in cell lines from several types of cancer by p53 conformation (FIG. 14); format: cell-based; settings: cancers with genetic mutations in p53, versus wildtype p53 conformation
# Source text: FIG. 14 The CL04177 peptide targets cells from multiple types of cancer, with a higher selectivity towards cell lines that are genetically predisposed towards expressing p53 in its “open” conformation through TP53 mutations. Viability curves exemplifying the response to the peptide for two cell lines, A) A2780 that has a wildtype p53 conformation and B) H23, which contains p53 with an “open” conformation based on genetic mutations in p53.
# as §1
# [5] = test system: MDA-MB-231 firefly luciferase-containing cells, metastases; assay: Anti-metastatic activity in vivo in an orthotopic TNBC model (FIG. 8); design: species or system NSG mice
# Experimental: PBS-treated mice developed metastatic growth visible by bioluminescence.
# Approval for this study was obtained by the local University Animal Experimental Committee at the University Medical Center Utrecht (IVD-UMC; WP numbers 9124-1-02 and −05). MDA-MB-231 firefly luciferase-containing cells were transplanted orthotopically into the exposed inguinal mammary fat pad as single cells at a density of 1 millionn cells in 50 ul of a medium into NSG mice (NOD.Cg-PrkdcIL2rgmWij/Szj) (stock 005557). Carprofen was injected s.c. as analgesia following the surgery. Animals were purchased from Charles River and maintained in a pathogen-free environment.
# Tumor growth dynamics were quantified in mice with established tumors (>50 mm3). […] After 2 weeks of recovery, mice were sacrificed. For in vivo dosing, the peptides were dissolved in PBS. We used 11 mice per group that were randomly assigned to the different treatment groups before the start of the experiment.
# To visualize tumor burden in a live mouse, mice were injected with luciferin substrate i.p. at 150 mg/kg, and imaged under isoflurane anesthesia 15 min later using a bioluminescence imager. The M3Vision software was used to analyze the bioluminescence signal by taking a region of interest (ROI) around the primary tumor to evaluate the BL signal from the tumor or around the upper abdomen and chest of the mouse to evaluate the signal from metastases. The signal was measured in photons/s/cm2.
# [6] = target: p53-TAD2 phosphorylated at T55 or S46 (Homo sapiens, UniProt P04637); assay: Fluorescence anisotropy binding assay with FITC-labelled p53 peptides (FIG. 3); settings: versus non-phosphorylated p53-TAD2
# Experimental: Data was acquired on a ClarioStar Plus plate reader. Endpoint measurement with 200 flashes per well were performed. An excitation filter with 482 nm wavelength and emission filter with 530 nm were used and gain adjustment as well as focal height adjustment were performed for each measurement. Fluorescence intensity, parallel fluorescence polarization and perpendicular fluorescence polarization were recorded. Data analysis was performed using MARS Version 3.4 (BMG), Microsoft Excel and GraphPad Prism Version 8.
# For measurements, 116 μl of a solution of the specific Cleara peptides (ranging from 1 to 100 μM) were prepared. Subsequently 4 μl of FITC-labelled p53 peptides (stock concentration 15 μM, resulting in a final concentration of 500 nM) were added. 35 μl were then transferred in each well of the 384-well plate. Measurements were performed in triplicates. If necessary, this setup was extended with lower concentrations in order to cover strong interactions.
# The anisotropy (r) is defined as the ratio of the polarized component to the total intensity (IT):
# where the excitation is polarized along the z-axis, emission from the fluorophore is symmetric around the z-axis, so Ix=Iy and […], resulting in:
# The obtained anisotropy values for each concentration of CL peptide can be used to determine the binding affinity, by applying following fitting function: […]
# [7] = daily s.c. for one week, 2.5 mg/kg CL04183, 10 mg/kg CL04177, versus PBS
# Chain of p53-TAD2 phosphorylated at T55 or S46 (P04637 37-57 limits assumed): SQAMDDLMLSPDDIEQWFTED
molecule,measurement,setting,value
"O=c1[nH]cc(F)c(=O)[nH]1 [5-FU, 5-Fluorouracil]",effect on liver metastases,[1],specifically counteract liver metastases
"RKKASSKIEAEILDAFSQNWRRKRPPRRRQRRKKRG ([dR][dK][dK][dA][dS][dS][dK][dI][dE][dA][dE][dI][dL][dD][dA][dF][dS][dQ][dN][dW][dR][dR][dK][dR][dP][dP][dR][dR][dR][dQ][dR][dR][dK][dK][dR]G; listed as Homo sapiens) [CL04177, retro-inverso peptide derived from human FOXO4]",cell population targeted,[2],targets cells with increased PML bodies and phosphorylated p53
same,sensitivity of cell lines to the peptide,[3]; breast cancer lines with few PML bodies,less sensitive
same,sensitivity of cell lines to the peptide,[3]; triple-negative lines with high levels of PML bodies,highly sensitive
same,"sensitivity (ED50s) of cancers predisposed towards ""open"" p53",[4],more sensitive
same,effect on liver metastases,[5]; FIG. 8,specifically counteract liver metastases
same,incidence of liver metastasis (bioluminescence of tumor cells in the extracted livers),[5]; [7],decreased the incidence of liver metastasis
same,incidence of visible metastasis (bioluminescence),[5]; [7],decreased the incidence of visible metastasis
"FOXO4: fragment of human FOXO4 (Uniprot ID P98177) from amino acid 86 to 207, recombinant forkhead domain (protein) GAVTGPRKGGSRRNAWGNQSYAELISQAIESAPEKRLTLAQIYEWMVRTVPYFKDKGDSNSSAGWKNSIRHNLSLHSKFIKVHNEATGKSSWWMLNPEGGKSGKAPRRRAASMDSSSKLLRG",affinity to p53-TAD2 when phosphorylated at T55 or S46,[6],substantially higher affinity

# Reference: US20250189516A1, “PHOSPHORYLATION OF P53 AS A PROGNOSTIC OR DIAGNOSTIC MARKER FOR THE TREATMENT OF SENESCENT CELLS IN A MAMMAL” (CLEARA BIOTECH B.V., priority 2022, published 2025)
